Laboratory results reported in patent US20220396577A1, “NOVEL SUBSTITUTED 1,3-8-TRIAZASPIRO[4,5] DECANE-2,4-DIONE COMPOUNDS AS INDOLEAMINE 2,3-DIOXYGENASE (IDO) AND/OR TRYPTOPHAN 2,3-DIOXYGENASE (TDO) INHIBITORS” (Merck Sharp & Dohme LLC, priority 2019, published 2022).

Target: T1, FLT3(D835Y) (Homo sapiens, UniProt P36888, D835Y)
T1 sequence (P36888 27-993 D835Y): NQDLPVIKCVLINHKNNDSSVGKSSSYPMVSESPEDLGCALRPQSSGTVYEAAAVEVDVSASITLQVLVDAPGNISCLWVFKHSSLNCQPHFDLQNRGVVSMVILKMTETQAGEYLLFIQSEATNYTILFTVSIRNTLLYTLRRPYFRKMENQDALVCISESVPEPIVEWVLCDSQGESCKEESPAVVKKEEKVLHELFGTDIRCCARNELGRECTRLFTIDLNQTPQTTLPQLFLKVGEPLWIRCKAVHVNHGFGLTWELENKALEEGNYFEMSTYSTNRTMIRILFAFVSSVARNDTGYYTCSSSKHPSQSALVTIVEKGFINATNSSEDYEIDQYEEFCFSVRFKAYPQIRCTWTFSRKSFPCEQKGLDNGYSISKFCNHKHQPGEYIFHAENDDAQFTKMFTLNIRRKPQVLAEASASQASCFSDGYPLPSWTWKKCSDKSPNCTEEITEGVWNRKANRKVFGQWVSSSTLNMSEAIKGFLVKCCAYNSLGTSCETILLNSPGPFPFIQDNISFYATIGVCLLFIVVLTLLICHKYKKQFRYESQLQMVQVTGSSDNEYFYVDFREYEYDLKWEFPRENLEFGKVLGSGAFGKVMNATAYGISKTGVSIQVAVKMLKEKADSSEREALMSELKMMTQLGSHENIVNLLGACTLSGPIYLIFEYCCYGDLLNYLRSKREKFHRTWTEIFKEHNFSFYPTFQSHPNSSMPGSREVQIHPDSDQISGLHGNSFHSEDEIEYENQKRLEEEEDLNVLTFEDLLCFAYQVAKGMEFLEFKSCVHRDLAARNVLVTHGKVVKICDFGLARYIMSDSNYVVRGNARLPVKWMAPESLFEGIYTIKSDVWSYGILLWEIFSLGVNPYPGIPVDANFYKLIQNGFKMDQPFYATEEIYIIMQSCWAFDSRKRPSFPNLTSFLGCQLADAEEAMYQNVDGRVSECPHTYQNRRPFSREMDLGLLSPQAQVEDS
Test: Off-target kinase panel, ZLYTE: FLT3(D835Y)
Assay type: biochemical
Conditions: read-out: Estimated IC50 (uM) FLT3(D835Y)
Excerpt: The activity data was obtained in a panel of 265 and 264 for compounds 1-1 and CC-1, respectively, using the ZLYTE and ADAPTA assay methods indicated in the table below.
The ZLYTE biochemical assay employs a fluorescence-based, coupled-enzyme format and is based on the differential sensitivity of phosphorylated and non-phosphorylated peptides to proteolytic cleavage. The peptide substrate is labeled with two fluorophores—one at each end—that make up a Fluorescence Resonance Energy Transfer (FRET) pair.
In the primary reaction, the kinase transfers the gamma-phosphate of ATP to a single tyrosine, serine or threonine residue in a synthetic FRET-peptide. In the secondary reaction, a site-specific protease recognizes and cleaves non-phosphorylated FRET-peptides. Phosphorylation of FRET-peptides suppresses cleavage by the Development Reagent. […] A ratiometric method, which calculates the ratio (the Emission Ratio) of donor emission to acceptor emission after excitation of the donor fluorophore at 400 nm, is used to quantitate reaction progress, as shown in the equation below. […]
Both cleaved and uncleaved FRET-peptides contribute to the fluorescence signals and therefore to the Emission Ratio. The extent of phosphorylation of the FRET-peptide can be calculated from the Emission Ratio. […]
10. Read on fluorescence plate reader and analyze the data.

## O=C1NC(=O)C2(CCN(c3cc(Cl)cc4[nH]ncc34)CC2)N1 [CC-1]
  IC50: 1.5 µM
